From PubChem BioAssay AID1963875 (Molecular Pharmacology Branch, DTP, NCI, 2024)

System: KRAS-mutant PDC complex spheroid viability
Experiment: Anticancer human tumor 186277-243-T-J2-PDC patient-derived colon adenocarcinoma cell line growth inhibition [KRAS2]
Conditions: for IC50: curve of first compound; for viability, T/C: stronger effect = lower value
Excerpt: Multicellular complex tumor spheroid response to RAS pathway inhibitors in combination with a targeted agents in patient-derived cell lines with oncogenic KRAS variants from multiple cancer types
A high-throughput screen of multi-cell type tumor spheroids was designed to identify active combinations of targeted small molecules and KRAS pathway inhibitors. Complex spheroids include a stromal component modeled by human endothelial cells (HUVEC) and fibroblasts modeled by human mesenchymal stem cells (MSCs). The concentration ranges selected for each drug and investigational agent were based upon clinically achievable concentrations if the clinical Cmax of the agent was known.
Compounds. The drugs and investigational agents: BI-3406 (NSC825286), BAY-293 (NSC824723), batoprotafib (TNO155; NSC825523), sotorasib (AMG 510; NSC818433), MRTX1257 (NSC819558), elimusertib (BAY 1895344; NSC800525), molibresib (GSK525762; NSC774829), temuterkib (LY3214996; NSC803410), venetoclax (NSC766270), alisertib (NSC759677), olaparib (NSC753686), talazoparib (NSC767125), erdafitinib (NSC781556), ipatasertib (NSC767898), cabozantinib (NSC761068), nintedanib (NSC756659), abemaciclib (NSC768073), docetaxel (NSC628503), trametinib (NSC758246), and sapanisertib (NSC764658) were obtained from the National Cancer Institute (NCI) Developmental Therapeutics Program Chemical Repository. The FDA-approved anticancer drug set is available from the Developmental Therapeutics Program. […] The stock solutions were prepared in dimethyl sulfoxide (DMSO, Sigma-Aldrich, St. Louis, MO, cat. D2650) at 800-fold the tested concentration and stored at -70 degrees C prior to their use. All drugs and investigational agents were tested over a range starting from a high concentration at or near the clinical Cmax and decreasing in half-log increments. If the clinical Cmax for an agent had not been determined, the highest concentration tested was 10 microM.
Cell Culture. All cells were maintained in an incubator at 37 degrees C and 5% CO2 with 95% humidity. The PDC lines were cultured according to standard operating procedures established by the NCI PDMR (https://pdmr.cancer.gov/sops/default.htm). Briefly, all PDCs were thawed and cultured in Matrigel-coated flasks prepared with a working solution of 1X Ham's F-12 nutrient mix, without supplementation (Invitrogen, Waltham, MA, cat. 11765054), 100 U/mL penicillin-streptomycin (Invitrogen, cat. 15140122), and 2.5% Matrigel (Corning Inc., Corning, NY, cat. 354248) for the first three passages. All PDCs were cultured in complete DMEM/F-12 media containing advanced DMEM/F-12 (Invitrogen, cat. 12634028), 4.9% defined fetal bovine serum, heat inactivated (HyClone Laboratories Inc., Logan, UT, cat. SH30070.03HI), 389 ng/mL hydrocortisone (Sigma-Aldrich, cat. H4001), 9.7 ng/mL human EGF recombinant protein (Invitrogen, cat. PHG0313), 23.4 microg/mL adenine (Sigma-Aldrich, cat. A2786), 97.3 U/mL penicillin-streptomycin (Invitrogen, cat. 15140122), 1.9 mM L-glutamine (Invitrogen, cat. 25030081), and 9.7 microM Y-27632 dihydrochloride (Tocris Bioscience, Bristol, United Kingdom, cat. 1254). The PDCs were cultured in complete DMEM/F12 media without 9.7 microM Y-27632 dihydrochloride for at least two passages prior to the screen. The established cell line HOP-62 was cultured in RPMI 1640 medium, HEPES (Invitrogen, cat. 22400105) with 10% defined fetal bovine serum (HyClone Laboratories Inc., cat. SH30070.03) and 2 mM L-glutamine (Invitrogen, cat. 25030081). The pooled donor HUVEC were cultured in endothelial cell growth medium 2 (PromoCell, Heidelberg, Germany, cat. C-22011) and the hMSC were cultured in mesenchymal stem cell growth medium 2 (PromoCell, cat. C-28009). For all experiments, HUVEC and hMSC were used at passages </=5, while the malignant cell lines were used at passages </=15. […]

[1] = second compound 0.1 µM, first compound 0.0316 µM
[2] = second compound 0.1 µM, first compound 0.1 µM
[3] = second compound 0.1 µM, first compound 0.316 µM
[4] = second compound 0.1 µM, first compound 1 µM
[5] = second compound 0.1 µM, first compound 3.16 µM
[6] = second compound 0.316 µM, first compound 0.0316 µM
[7] = second compound 0.316 µM, first compound 0.1 µM
[8] = second compound 0.316 µM, first compound 0.316 µM
[9] = second compound 0.316 µM, first compound 1 µM
[10] = second compound 0.316 µM, first compound 3.16 µM
[11] = second compound 1 µM, first compound 0.0316 µM
[12] = second compound 1 µM, first compound 0.1 µM
[13] = second compound 1 µM, first compound 0.316 µM
[14] = second compound 1 µM, first compound 1 µM
[15] = second compound 1 µM, first compound 3.16 µM
[16] = second compound 3.16 µM, first compound 0.0316 µM
[17] = second compound 3.16 µM, first compound 0.1 µM
[18] = second compound 3.16 µM, first compound 0.316 µM
[19] = second compound 3.16 µM, first compound 1 µM
[20] = second compound 3.16 µM, first compound 3.16 µM
[21] = second compound 10 µM, first compound 0.0316 µM
[22] = second compound 10 µM, first compound 0.1 µM
[23] = second compound 10 µM, first compound 0.316 µM
[24] = second compound 10 µM, first compound 1 µM
[25] = second compound 10 µM, first compound 3.16 µM
[26] = second compound 0.1 µM, first compound 10 µM
[27] = second compound 0.316 µM, first compound 10 µM
[28] = second compound 1 µM, first compound 10 µM
[29] = second compound 3.16 µM, first compound 10 µM
[30] = second compound 10 µM, first compound 10 µM
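For viability, T/C in this document: viability read after seven days of compound exposure; 100% = DMSO vehicle-treated spheroids so lower means less viable.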

| SMILES | IC50 (second compound 0.1 µM) [nM] | IC50 (second compound 0.316 µM) [nM] | IC50 (second compound 1 µM) [nM] | IC50 (second compound 3.16 µM) [nM] | IC50 (second compound 10 µM) [nM] | viability, T/C [1] [%] | viability, T/C [2] [%] | viability, T/C [3] [%] | viability, T/C [4] [%] | viability, T/C [5] [%] | viability, T/C [6] [%] | viability, T/C [7] [%] | viability, T/C [8] [%] | viability, T/C [9] [%] | viability, T/C [10] [%] | viability, T/C [11] [%] | viability, T/C [12] [%] | viability, T/C [13] [%] | viability, T/C [14] [%] | viability, T/C [15] [%] | further results |
| --- | --- | --- | --- | --- | --- | --- | --- | --- | --- | --- | --- | --- | --- | --- | --- | --- | --- | --- | --- | --- | --- |
| CC1COCCN1c1cc(-c2ccnn2C)c2ccnc(-c3ccn[nH]3)c2n1 (centres undefined) + C=CC(=O)N1CCN(c2nc(=O)n(-c3c(C)ccnc3C(C)C)c3nc(-c4c(O)cccc4F)c(F)cc23)C(C)C1 | 22 | 22.6 | 17.9 | 17 | < 10 | 32.6 | 5.89 | 4.33 | 3.67 | 4.31 | 31.5 | 6.35 | 4.65 | 3.68 | 4.54 | 24.2 | 7.17 | 5.13 | 4.4 | 5.82 | viability, T/C (second compound 0.1 µM, first compound 0.01 µM): 87.5%; viability, T/C (second compound 0.316 µM, first compound 0.01 µM): 94.6%; viability, T/C (second compound 3.16 µM, first compound 0.01 µM): 79.5%; viability, T/C [16]: 15.3%; viability, T/C [17]: 7.75%; viability, T/C [18]: 5.93%; viability, T/C [19]: 6.25%; viability, T/C [20]: 8.7%; viability, T/C (second compound 10 µM, first compound 0.01 µM): 19.3%; viability, T/C [21]: 11.3%; viability, T/C [22]: 9.23%; viability, T/C [23]: 8.93%; viability, T/C [24]: 11.2%; viability, T/C [25]: 14.7% |
| CC1OCC2(CCN(c3cnc(Sc4ccnc(N)c4Cl)c(N)n3)CC2)C1N (centres undefined) + C=CC(=O)N1CCN(c2nc(=O)n(-c3c(C)ccnc3C(C)C)c3nc(-c4c(O)cccc4F)c(F)cc23)C(C)C1 | > 10000 | > 10000 | > 10000 | > 10000 | 449 | 99.3 | 97 | 99.2 | 105 | 104 | 99.9 | 93.2 | 96.1 | 99.4 | 101 | 101 | 99 | 93.4 | 90.1 | 94.4 | viability, T/C [26]: 107%; viability, T/C [27]: 102%; viability, T/C [28]: 80.2%; viability, T/C [16]: 80.4%; viability, T/C [17]: 87.2%; viability, T/C [18]: 76.6%; viability, T/C [19]: 82.9%; viability, T/C [20]: 80.5%; viability, T/C [29]: 62.8%; viability, T/C [21]: 53.9%; viability, T/C [22]: 52.8%; viability, T/C [23]: 56.4%; viability, T/C [24]: 40.7%; viability, T/C [25]: 22.7%; viability, T/C [30]: 19.5% |
| CCNC(=O)CC1N=C(c2ccc(Cl)cc2)c2cc(OC)ccc2-n2c(C)nnc21 (centres undefined) + C=CC(=O)N1CCN(c2nc(=O)n(-c3c(C)ccnc3C(C)C)c3nc(-c4c(O)cccc4F)c(F)cc23)C(C)C1 | > 10000 | > 10000 | 9860 | 2730 | 306 | 108 | 117 | 121 | 162 | 132 | 103 | 101 | 125 | 155 | 121 | 95.2 | 103 | 126 | 138 | 102 | viability, T/C [26]: 101%; viability, T/C [27]: 87.9%; viability, T/C [28]: 49.4%; viability, T/C [16]: 88.9%; viability, T/C [17]: 87.1%; viability, T/C [18]: 107%; viability, T/C [19]: 101%; viability, T/C [20]: 43.3%; viability, T/C [29]: 14.7%; viability, T/C [21]: 75.8%; viability, T/C [22]: 87.1%; viability, T/C [23]: 46.7%; viability, T/C [24]: 18.4%; viability, T/C [25]: 9.07%; viability, T/C [30]: 4.83% |
| Cn1nccc1Nc1nccc(-c2cc3c(s2)C(C)(C)N(CCN2CCOCC2)C3=O)n1 + C=CC(=O)N1CCN(c2nc(=O)n(-c3c(C)ccnc3C(C)C)c3nc(-c4c(O)cccc4F)c(F)cc23)C(C)C1 | 415 | 507 | 497 | 289 | 102 | 101 | 89.7 | 62.6 | 10.8 | 5.84 | 92.9 | 91.9 | 73.7 | 15.9 | 7.21 | 97.5 | 85.5 | 74.2 | 12.6 | 8.16 | viability, T/C [26]: 9.07%; viability, T/C [27]: 9.45%; viability, T/C [28]: 10.1%; viability, T/C [16]: 89.1%; viability, T/C [17]: 83.5%; viability, T/C [18]: 47.4%; viability, T/C [19]: 9.35%; viability, T/C [20]: 11.3%; viability, T/C [29]: 9.1%; viability, T/C [21]: 70.3%; viability, T/C [22]: 50.8%; viability, T/C [23]: 12.8%; viability, T/C [24]: 5.63%; viability, T/C [25]: 2.98%; viability, T/C [30]: 2.56% |
